Reference: article PMC3884022 (Journal of Hematology & Oncology, 2014)

What was measured:
2C9 = 2C9 (Homo sapiens, UniProt P11712); experiment: CYP2C9 inhibition; type: in vitro ADME
CYP3A [1] = experiment: CYP3A induction (mRNA and activity); type: in vitro ADME; settings: at 0.1 to 10 μM
CYP3A [2] = experiment: Metabolism in human microsomes; type: in vitro ADME
advanced solid tumors = experiment: Phase 1 combination study: tumor response (RECIST); type: in vivo, human
Experimental: Circulating nucleic acids were analyzed for PIK3CA (exons 9 and 20), KRAS (exons 2 and 3), and BRAF (exons 11 and 15) mutations. DNA extracted from whole blood samples was subjected to real-time quantitative polymerase chain reaction and spectrophotometric analysis as part of the quality control process, as previously described. Mutation screening was performed using Surveyor Nuclease (Transgenomic, Inc., Nebraska, USA). Radiologic assessment (computed tomography [CT] and/or magnetic resonance imaging [MRI] scans) of disease status was performed at baseline and every 6 weeks according to Response Evaluation Criteria in Solid Tumors (v1.0).

Sequence of 2C9 (P11712 whole entry): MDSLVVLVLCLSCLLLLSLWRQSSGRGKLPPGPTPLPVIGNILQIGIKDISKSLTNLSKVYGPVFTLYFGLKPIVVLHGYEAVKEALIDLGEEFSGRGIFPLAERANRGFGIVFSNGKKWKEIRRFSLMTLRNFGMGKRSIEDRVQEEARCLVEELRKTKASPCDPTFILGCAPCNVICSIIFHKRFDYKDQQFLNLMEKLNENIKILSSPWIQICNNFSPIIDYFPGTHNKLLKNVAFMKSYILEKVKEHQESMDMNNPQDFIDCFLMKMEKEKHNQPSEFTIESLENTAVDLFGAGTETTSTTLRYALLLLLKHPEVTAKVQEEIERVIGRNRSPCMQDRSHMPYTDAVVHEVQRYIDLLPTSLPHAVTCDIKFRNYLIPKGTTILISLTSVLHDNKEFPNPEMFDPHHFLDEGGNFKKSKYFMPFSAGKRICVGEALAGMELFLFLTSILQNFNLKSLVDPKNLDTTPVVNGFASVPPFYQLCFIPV

Question: Which IC50 (2C9) does the source give for `NC1(c2ccc(-c3nc4ccn5c(=O)[nH]nc5c4cc3-c3ccccc3)cc2)CCC1` [MK-2206] here?
Answer: > 35 µM

Question: And the “effect on CYP3A mRNA and activity” value (CYP3A [1])?
Answer: insignificant effect

Question: And the “metabolism to oxidative metabolites” value (CYP3A [2])?
Answer: mediated primarily by CYP3A

Question: What about the “duration of SD” value (advanced solid tumors; 1 metastatic breast cancer patient harboring a PIK3CA mutation (exon 20)) of the same molecule?
Answer: 4 months

Question: And the “duration of PR, range” value (advanced solid tumors; arm 1)?
Answer: 2–21 months

Question: What about the “median duration of PR” value (advanced solid tumors; arm 1) of the same molecule?
Answer: 11 months

Question: What about the “confirmed partial responses, patients” value (advanced solid tumors; arm 1, QOD and Q3W schedules, melanoma, neuroendocrine prostate, endometrial, cervical) of the same molecule?
Answer: 4

Question: What about the “duration of unconfirmed PR” value (advanced solid tumors; arm 1, SCC of the head and neck (n = 1)) of the same molecule?
Answer: 2 month

Question: What about the “unconfirmed PRs, patients” value (advanced solid tumors; arm 1, SCC of the head and neck, and gastric) of the same molecule?
Answer: 2 patients

Question: And the “duration of confirmed PR” value (advanced solid tumors; arm 1, cervical (n = 1))?
Answer: 6 month

Question: And the “duration of confirmed PR” value (advanced solid tumors; arm 1, endometrial (n = 1))?
Answer: 4 month

Question: What about the “duration of unconfirmed PR” value (advanced solid tumors; arm 1, gastric (n = 1)) of the same molecule?
Answer: 2 month

Question: And the “duration of confirmed PR” value (advanced solid tumors; arm 1, melanoma (n = 1))?
Answer: 21 month

Question: What about the “duration of confirmed PR” value (advanced solid tumors; arm 1, neuroendocrine prostate (n = 1)) of the same molecule?
Answer: 6 month

Question: And the “complete response, patients” value (advanced solid tumors; arm 1 carboplatin and paclitaxel, squamous cell carcinoma (SCC) of the orbit, 24 evaluable)?
Answer: 1 patient

Question: And the “duration of PR” value (advanced solid tumors; arm 2, MK-2206 200 mg with docetaxel, NSCLC patient)?
Answer: 6 months

Question: What about the “confirmed PR, patients” value (advanced solid tumors; arm 2, Q3W MK-2206 and docetaxel, NSCLC) of the same molecule?
Answer: One

Question: What about the objective responses (advanced solid tumors; arm 3 erlotinib) of the same molecule?
Answer: No objective responses

Question: What about the “best response SD, duration” value (advanced solid tumors; arm 3 erlotinib, QW schedule, patient with NSCLC) of the same molecule?
Answer: 7 months

Question: What about the “best response SD, duration” value (advanced solid tumors; arm 3 erlotinib, patient with cervical cancer) of the same molecule?
Answer: 6 months

Question: What about the “duration of SD, range” value (advanced solid tumors; in vivo) of the same molecule?
Answer: 1–13 months

Question: And the “median duration of SD” value (advanced solid tumors; in vivo)?
Answer: 7 months

Question: What about the “patients with SD lasting at least 6 months” value (advanced solid tumors; in vivo) of the same molecule?
Answer: Six

Question: What about the “duration of SD” value (advanced solid tumors; patients harboring PIK3CA mutations) of the same molecule?
Answer: 1.7 to 5.8 months

Question: And the “duration of SD” value (advanced solid tumors; patients with KRAS mutations)?
Answer: 1.4 to 3.0 months
